Test results from patent US7686852B2, “Monoazo dyes” (Clariant Finance (BVI) Limited, priority 2004, dated 2010).

Tests used:
[1] = hot water, then cooling; cited from earlier work
[2] = Comparative Test Series 3: stability of dye solution after cooling to 25° C. and 48 hours, filtration test; type: physicochemical; design: key to Aspect of the solution after the 48 hours: 1): after cooling down turned immediately cloudy; 2): remained clear after cooling down; key to Grade of the visual inspection of the upper filter: a grade of 5 signifies no residue; 4 signifies little, fine residues; 3 signifies bigger residues; 2 signifies coarse residues; 1 signifies a compact layer of precipitated dyestuff; settings: for Aspect of the solution after the 48 hours: dissolved at 90° C., kept at 25° C. for 48 hour; for time for passing of the 200 ml of dye solution trough the 2 filter layers / Grade of the visual inspection of the upper filter: after 48 hour at 25° C.; for Grade of the visual inspection of the upper filter: filtered through 2 paper filters
Description: In 160 ml of water a certain amount of dyestuff was dissolved at 90° C. and the resulting solution was diluted to 200 ml by adding water of 90° C. This solution was put in a water bath kept at 25° C. and after the dye solution was at 25° the dye solution was let for 48 hour without stirring or shaking at 25° C.
The solution was visually inspected first and the filtrated trough 2 layers of paper filters of 70 mm diameter (Typ 1450 CV obtainable from Schleicher & Schuell MicroScience GmbH
Hahnestrasse 3; D-37586 Dassel). The time for passing of the 200 ml of dye solution was measured and the upper filter was inspected visually. Grades are given and a grade of 5 signifies no residue, 4 signifies little, fine residues, 3 signifies bigger residues, 2 signifies coarse residues and 1 signifies a compact layer of precipitated dyestuff.

[3] = Solubility in water / stability of stock solutions; type: physicochemical; settings: room temperature

Compound | solubility in water [1] | Aspect of the solution after the 48 hours ([2]; 6 g/Liter in water) | time for passing of the 200 ml of dye solution trough the 2 filter layers ([2]; 6 g/Liter) [s] | Grade of the visual inspection of the upper filter ([2]; 6 g/Liter) | Aspect of the solution after the 48 hours ([2]; 12 g/Liter in water) | time for passing of the 200 ml of dye solution trough the 2 filter layers ([2]; 12 g/Liter) [s] | Grade of the visual inspection of the upper filter ([2]; 12 g/Liter) | Aspect of the solution after the 48 hours ([2]; 20 g/Liter in water) | time for passing of the 200 ml of dye solution trough the 2 filter layers ([2]; 20 g/Liter) [s] | Grade of the visual inspection of the upper filter ([2]; 20 g/Liter) | Aspect of the solution after the 48 hours ([2]; 30 g/Liter in water) | time for passing of the 200 ml of dye solution trough the 2 filter layers ([2]; 30 g/Liter) [s] | Grade of the visual inspection of the upper filter ([2]; 30 g/Liter) | stability of stock solutions [3]
Cc1ccc(S(=O)(=O)Oc2ccc(/N=N/c3ccc(Nc4ccc(S(=O)(=O)O)cc4[N+](=O)[O-])cc3)c(C)c2)cc1 | soluble in hot water, but partly reprecipitates on cooling | 1) | 16 | 4 | 1) | 27 | 3 | 1) | 33 | 2 to 3 | 1) | 95 | 1 to 2 | 
Cc1cc(OS(=O)(=O)c2ccc(C(C)(C)C)cc2)ccc1/N=N/c1ccc(Nc2ccc(S(=O)(=O)O)cc2[N+](=O)[O-])cc1 [Example 1] |  | 2) | 6 | 4 | 2) | 7 | 3 to 4 | 2) | 7 | 3 | 2) | 8 | 2 to 3 | remain clear for several weeks even at room temperature
